Source: patent publication US20080090734A1, “DRUG SCREENING AND TARGET IDENTIFICATION USING SPR IMAGING OF TARGET PROTEIN ARRAYS” (The Trustees of California State University, priority 2006, published 2008)

Test system: A. baumannii clinical isolate LAC 01
Test: Antibiotic susceptibility profile
Format: cell-based, Acinetobacter baumannii
Set-up: key: Resistance; Intermediate; Susceptible
Text: (§1) We obtained over thirty clinical isolates of A. baumannii from nosocomial infections in New York City and Los Angeles. […] Only antibiotics with breakpoints for A. baumannii were used. […] Isolates LA 01 to 20 were acquired from Los Angels County while NY-A to NY-H were obtained from New York City.
(§2) Antibiotic susceptibility profiles of clinical isolates of A. baumannii and reference strains. R, I, and S denote Resistance, Intermediate and Susceptible, respectively. Genetic Profiling of Clinical Isolates of A. baumannii

| Structure (SMILES) | Antibiotic susceptibility |
| --- | --- |
| C[C@H]1c2cccc(O)c2C(=O)C2=C(O)[C@]3(O)C(=O)C(C(N)=O)=C(O)[C@@H](N(C)C)[C@@H]3[C@@H](O)[C@@H]21 [DOX, Doxycycline] | S |

Test system: A. baumannii clinical isolate LAC 02
Test: Antibiotic susceptibility profile
Format: cell-based, Acinetobacter baumannii
Set-up: key: Resistance; Intermediate; Susceptible
Text: as §1, §2

| Structure (SMILES) | Antibiotic susceptibility |
| --- | --- |
| C[C@H]1c2cccc(O)c2C(=O)C2=C(O)[C@]3(O)C(=O)C(C(N)=O)=C(O)[C@@H](N(C)C)[C@@H]3[C@@H](O)[C@@H]21 [DOX, Doxycycline] | S |

Test system: A. baumannii clinical isolate LAC 03
Test: Antibiotic susceptibility profile
Format: cell-based, Acinetobacter baumannii
Set-up: key: Resistance; Intermediate; Susceptible
Text: as §1, §2

| Structure (SMILES) | Antibiotic susceptibility |
| --- | --- |
| C[C@H]1c2cccc(O)c2C(=O)C2=C(O)[C@]3(O)C(=O)C(C(N)=O)=C(O)[C@@H](N(C)C)[C@@H]3[C@@H](O)[C@@H]21 [DOX, Doxycycline] | S |

Test system: A. baumannii clinical isolate LAC 04
Test: Antibiotic susceptibility profile
Format: cell-based, Acinetobacter baumannii
Set-up: key: Resistance; Intermediate; Susceptible
Text: as §1, §2

| Structure (SMILES) | Antibiotic susceptibility |
| --- | --- |
| C[C@H]1c2cccc(O)c2C(=O)C2=C(O)[C@]3(O)C(=O)C(C(N)=O)=C(O)[C@@H](N(C)C)[C@@H]3[C@@H](O)[C@@H]21 [DOX, Doxycycline] | S |

Test system: A. baumannii clinical isolate LAC 05
Test: Antibiotic susceptibility profile
Format: cell-based, Acinetobacter baumannii
Set-up: key: Resistance; Intermediate; Susceptible
Text: as §1, §2

| Structure (SMILES) | Antibiotic susceptibility |
| --- | --- |
| C[C@H]1c2cccc(O)c2C(=O)C2=C(O)[C@]3(O)C(=O)C(C(N)=O)=C(O)[C@@H](N(C)C)[C@@H]3[C@@H](O)[C@@H]21 [DOX, Doxycycline] | S |

Test system: A. baumannii clinical isolate LAC 06
Test: Antibiotic susceptibility profile
Format: cell-based, Acinetobacter baumannii
Set-up: key: Resistance; Intermediate; Susceptible
Text: as §1, §2

| Structure (SMILES) | Antibiotic susceptibility |
| --- | --- |
| C[C@H]1c2cccc(O)c2C(=O)C2=C(O)[C@]3(O)C(=O)C(C(N)=O)=C(O)[C@@H](N(C)C)[C@@H]3[C@@H](O)[C@@H]21 [DOX, Doxycycline] | S |

Test system: A. baumannii clinical isolate LAC 07
Test: Antibiotic susceptibility profile
Format: cell-based, Acinetobacter baumannii
Set-up: key: Resistance; Intermediate; Susceptible
Text: as §1, §2

| Structure (SMILES) | Antibiotic susceptibility |
| --- | --- |
| C[C@H]1c2cccc(O)c2C(=O)C2=C(O)[C@]3(O)C(=O)C(C(N)=O)=C(O)[C@@H](N(C)C)[C@@H]3[C@@H](O)[C@@H]21 [DOX, Doxycycline] | S |

Test system: A. baumannii clinical isolate LAC 08
Test: Antibiotic susceptibility profile
Format: cell-based, Acinetobacter baumannii
Set-up: key: Resistance; Intermediate; Susceptible
Text: as §1, §2

| Structure (SMILES) | Antibiotic susceptibility |
| --- | --- |
| C[C@H]1c2cccc(O)c2C(=O)C2=C(O)[C@]3(O)C(=O)C(C(N)=O)=C(O)[C@@H](N(C)C)[C@@H]3[C@@H](O)[C@@H]21 [DOX, Doxycycline] | S |

Test system: A. baumannii clinical isolate LAC 09
Test: Antibiotic susceptibility profile
Format: cell-based, Acinetobacter baumannii
Set-up: key: Resistance; Intermediate; Susceptible
Text: as §1, §2

| Structure (SMILES) | Antibiotic susceptibility |
| --- | --- |
| C[C@H]1c2cccc(O)c2C(=O)C2=C(O)[C@]3(O)C(=O)C(C(N)=O)=C(O)[C@@H](N(C)C)[C@@H]3[C@@H](O)[C@@H]21 [DOX, Doxycycline] | S |

Test system: A. baumannii clinical isolate LAC 10
Test: Antibiotic susceptibility profile
Format: cell-based, Acinetobacter baumannii
Set-up: key: Resistance; Intermediate; Susceptible
Text: as §1, §2

| Structure (SMILES) | Antibiotic susceptibility |
| --- | --- |
| C[C@H]1c2cccc(O)c2C(=O)C2=C(O)[C@]3(O)C(=O)C(C(N)=O)=C(O)[C@@H](N(C)C)[C@@H]3[C@@H](O)[C@@H]21 [DOX, Doxycycline] | S |

Test system: A. baumannii clinical isolate LAC 11
Test: Antibiotic susceptibility profile
Format: cell-based, Acinetobacter baumannii
Set-up: key: Resistance; Intermediate; Susceptible
Text: as §1, §2

| Structure (SMILES) | Antibiotic susceptibility |
| --- | --- |
| C[C@H]1c2cccc(O)c2C(=O)C2=C(O)[C@]3(O)C(=O)C(C(N)=O)=C(O)[C@@H](N(C)C)[C@@H]3[C@@H](O)[C@@H]21 [DOX, Doxycycline] | R |

Test system: A. baumannii clinical isolate LAC 12
Test: Antibiotic susceptibility profile
Format: cell-based, Acinetobacter baumannii
Set-up: key: Resistance; Intermediate; Susceptible
Text: as §1, §2

| Structure (SMILES) | Antibiotic susceptibility |
| --- | --- |
| C[C@H]1c2cccc(O)c2C(=O)C2=C(O)[C@]3(O)C(=O)C(C(N)=O)=C(O)[C@@H](N(C)C)[C@@H]3[C@@H](O)[C@@H]21 [DOX, Doxycycline] | R |

Test system: A. baumannii clinical isolate LAC 13
Test: Antibiotic susceptibility profile
Format: cell-based, Acinetobacter baumannii
Set-up: key: Resistance; Intermediate; Susceptible
Text: as §1, §2

| Structure (SMILES) | Antibiotic susceptibility |
| --- | --- |
| C[C@H]1c2cccc(O)c2C(=O)C2=C(O)[C@]3(O)C(=O)C(C(N)=O)=C(O)[C@@H](N(C)C)[C@@H]3[C@@H](O)[C@@H]21 [DOX, Doxycycline] | R |

Test system: A. baumannii clinical isolate LAC 14
Test: Antibiotic susceptibility profile
Format: cell-based, Acinetobacter baumannii
Set-up: key: Resistance; Intermediate; Susceptible
Text: as §1, §2

| Structure (SMILES) | Antibiotic susceptibility |
| --- | --- |
| C[C@H]1c2cccc(O)c2C(=O)C2=C(O)[C@]3(O)C(=O)C(C(N)=O)=C(O)[C@@H](N(C)C)[C@@H]3[C@@H](O)[C@@H]21 [DOX, Doxycycline] | R |

Test system: A. baumannii clinical isolate LAC 15
Test: Antibiotic susceptibility profile
Format: cell-based, Acinetobacter baumannii
Set-up: key: Resistance; Intermediate; Susceptible
Text: as §1, §2

| Structure (SMILES) | Antibiotic susceptibility |
| --- | --- |
| C[C@H]1c2cccc(O)c2C(=O)C2=C(O)[C@]3(O)C(=O)C(C(N)=O)=C(O)[C@@H](N(C)C)[C@@H]3[C@@H](O)[C@@H]21 [DOX, Doxycycline] | S |

Test system: A. baumannii clinical isolate LAC 16
Test: Antibiotic susceptibility profile
Format: cell-based, Acinetobacter baumannii
Set-up: key: Resistance; Intermediate; Susceptible
Text: as §1, §2

| Structure (SMILES) | Antibiotic susceptibility |
| --- | --- |
| C[C@H]1c2cccc(O)c2C(=O)C2=C(O)[C@]3(O)C(=O)C(C(N)=O)=C(O)[C@@H](N(C)C)[C@@H]3[C@@H](O)[C@@H]21 [DOX, Doxycycline] | S |
